# Experimental data taken from patent publication US20250186442A1, “Obicetrapib and Ezetimibe Combination Treatment and Fixed Dose Pharmaceutical Compositions” (NewAmsterdam Pharma B.V., priority 2022, published 2025).
# How the values were obtained:
# [1] = healthy volunteers; single doses up to 150 mg and multiple doses up to 25 mg/day for 21 days; cited from earlier work
# ApoB = assay: ROSE2 phase 2b clinical trial - ApoB; type: in vivo, human; conditions: obicetrapib 10 mg, ezetimibe 10 mg
# Experimental: The secondary objectives of this study include the following, in hierarchical order: • To evaluate the effect of obicetrapib 10 mg monotherapy compared with placebo, when used as an adjunct to high-intensity statin therapy, on LDL-C at Day 84; • To evaluate the effect of obicetrapib 10 mg+ezetimibe 10 mg combination therapy compared with placebo, when used as an adjunct to high-intensity statin therapy, on ApoB at Day 84; and • To evaluate the effect of obicetrapib 10 mg monotherapy compared with placebo, when used as an adjunct to high-intensity statin therapy, on ApoB at Day 84.
# This study will be a placebo-controlled, double-blind, randomized, Phase 2 study to evaluate the efficacy, safety, and tolerability of obicetrapib 10 mg, both in combination with ezetimibe 10 mg and as monotherapy, as an adjunct to high-intensity statin therapy. This study will take place at approximately 20 sites in the United States.
# Up to 2 weeks after the Screening Visit, participants will return to the site on Day 1 (Visit 2) and confirm study eligibility before being randomized and beginning treatment. Approximately 114 eligible participants (38 participants per treatment group) will be randomized in a 1:1:1 ratio to 1 of the following treatment groups: • Combination therapy: Obicetrapib 10 mg+ezetimibe 10 mg (administered as one 10 mg obicetrapib tablet and one 10 mg ezetimibe capsule); • Obicetrapib monotherapy: Obicetrapib 10 mg (administered as one 10 mg obicetrapib tablet and 1 placebo capsule); or • Placebo (administered as 1 placebo tablet and 1 placebo capsule).
# The secondary efficacy endpoints include the following, in hierarchical order: • Percent change from Day 1 to Day 84 in LDL-C for the obicetrapib 10 mg monotherapy • treatment group compared with the placebo group; • Percent change from Day 1 to Day 84 in ApoB for the obicetrapib 10 mg+ezetimibe 10 mg • combination treatment group compared with the placebo group; and • Percent change from Day 1 to Day 84 in ApoB for the obicetrapib 10 mg monotherapy treatment group compared with the placebo group.
# Blood samples for the lipid profile must be obtained under fasting conditions (ie, after the participant has fasted for approximately 10 hours). For the purposes of this study, fasting will be defined as nothing by mouth except water and any essential medications. If a participant is not fasting, the Investigator should reschedule the visit as soon as possible. LDL-C level will be calculated using the Friedewald equation unless TG≥400 mg/dL or LDL-C≤50 mg/dL; in both cases, LDL-C level will be measured directly by preparative ultracentrifugation, also referred to as beta quantification. Additionally, LDL-C will be measured by preparative ultracentrifugation, also referred to as beta quantification, at baseline (Visit 2) and at the end of the 12-week Treatment Period (Visit 4) for all participants.
# The Modified ITT (mITT) Population will include all participants in the ITT Population who receive at least 1 dose of any study drug and have a baseline value for the LDL-C assessment. Any efficacy measurement obtained during the Safety Follow-up Visit (Visit 5) after a participant permanently discontinues the study drug or after a participant receives an excluded medication and/or procedure will be removed from the mITT analysis. Treatment classification will be based on the randomized treatment. The mITT Population will be used for the primary analysis of all efficacy endpoints.
structure (smiles),measurement,setting,value
"CCOC(=O)N1c2ccc(C(F)(F)F)cc2[C@@H](N(Cc2cc(C(F)(F)F)cc(C(F)(F)F)c2)c2ncc(OCCCC(=O)O)cn2)C[C@H]1CC [Obicetrapib, {4-[(2-{[3,5-bis(trifluoromethyl)benzyl][(2R,4S)-1-(ethoxycarbonyl)-2-ethyl-6-(trifluoromethyl)-1,2,3,4-tetrahydroquinolin-4-yl]amino}pyrimidin-5-yl)oxy]butanoic acid}]",tolerability,[1],generally well tolerated
same,"ApoB Change from Baseline to Day 28, Mean",ApoB; Exploratory Population,-24.2 mg/dL
same,"ApoB Change from Baseline to Day 28, Median",ApoB; Exploratory Population,-23.0 mg/dL
same,"ApoB Change from Baseline to Day 84, Mean",ApoB; Exploratory Population,-20.5 mg/dL
same,"ApoB Change from Baseline to Day 84, Median",ApoB; Exploratory Population,-21.5 mg/dL
same,"ApoB Day 28, Mean",ApoB; Exploratory Population,65.4 mg/dL
same,"ApoB Day 28, Median",ApoB; Exploratory Population,64.5 mg/dL
same,"ApoB Day 84, Mean",ApoB; Exploratory Population,69.1 mg/dL
same,"ApoB Day 84, Median",ApoB; Exploratory Population,65.0 mg/dL
same,"ApoB Percent Change from Baseline to Day 28 (%), Mean",ApoB; Exploratory Population,−26.00%
same,"ApoB Percent Change from Baseline to Day 28 (%), Median",ApoB; Exploratory Population,−26.00%
same,"ApoB Percent Change from Baseline to Day 84 (%), Mean",ApoB; Exploratory Population,−21.73%
same,"ApoB Percent Change from Baseline to Day 84 (%), Median",ApoB; Exploratory Population,−24.20%
same,"ApoB Change from Baseline to Day 28, Mean",ApoB; mITT Population,-18.9 mg/dL
same,"ApoB Change from Baseline to Day 28, Median",ApoB; mITT Population,-20.0 mg/dL
same,"ApoB Change from Baseline to Day 84, Mean",ApoB; mITT Population,-10.4 mg/dL
same,"ApoB Change from Baseline to Day 84, Median",ApoB; mITT Population,-14.5 mg/dL
same,"ApoB Day 28, Mean",ApoB; mITT Population,73.4 mg/dL
same,"ApoB Day 28, Median",ApoB; mITT Population,66.0 mg/dL
same,"ApoB Day 84, Mean",ApoB; mITT Population,82.4 mg/dL
same,"ApoB Day 84, Median",ApoB; mITT Population,72.0 mg/dL
same,"ApoB Percent Change from Baseline to Day 28 (%), Mean",ApoB; mITT Population,−19.16%
same,"ApoB Percent Change from Baseline to Day 28 (%), Median",ApoB; mITT Population,−23.10%
same,"ApoB Percent Change from Baseline to Day 84 (%), Mean",ApoB; mITT Population,−9.50%
same,"ApoB Percent Change from Baseline to Day 84 (%), Median",ApoB; mITT Population,−17.35%
